Data as given in patent publication US3955959A, “Herbicide for use in transplanted rice” (priority 1974, dated 1976).
“And” between values parts separate entries of the source, which are not always exact repeats. Identical values can stand only once.

Tests used:
[1] = system: weeds in transplanted rice; assay: Example 6 overall; assay type: in vivo
Method: In this example, the efficacy of Herbicide A is presented for a variety of weeds in the presence of ordinary and infant transplant rice. In this example, tests were conducted at the said JAAPR Lab at different times of the year. "Early season" transplants were made in April and "Normal season" transplants were made in July. The size of the transplants at the respective seasons were: Season Seedling Type Plant Height (cm) Leaf Stage ______________________________________ Early Ordinary 16.5 4.5 Early Infant 9.1 2.4 Normal Ordinary 41.7 5.3 Normal Infant 14.7 1.9 ______________________________________
Duplicate treatments were used. At the time of application of the herbicide, the status of the grass (EC) was as follows: […]

[2] = system: Alisma canaliculatum, Aneilema japonica, Monochoria vaginalis, Commelina communis; assay: Weeds effectively treated to date: monocotyledonous broadleaf weeds; assay type: in vivo
transplanted rice [3] = assay: Example 2 field test, rice yield; assay type: in vivo, rice (Tainan No. 5, japonica); conditions: in vivo
Method: (§1) In the tests described in the tables below, the herbicides were formulated and used in granular form in conventional manner. […] The commercial herbicide used was a granular product having 5% active ingredient.
(§2) In the field tests of the herbicide of this invention with transplanted rice, the rice seedlings were grown in conventional manner, by seeding the rice in a typical seedbed of sandy loam to clay soil of the country wherein the test was conducted. For laboratory and greenhouse work the seedlings were obtained by seeding rice in a mixture of soil, e.g., Ray silt loam, and peat in wood flats. For purposes of testing the herbicides on younger rice seedlings (infant or Dapog) the rice was usually allowed to grow for 6-15 days before lifting for transplanting. Older (ordinary) rice plants were usually grown for a period of about 2-3 weeks, or as much as about 7 weeks before lifting. Since the period of growth is dependent upon climatic conditions, a better measure of when to transplant the rice seedling is the leaf stage of growth; for infant or Dapog rice the seedling is lifted at the 1.5-2 leaf stage of growth, and for ordinary seedlings at the 2.5-5 leaf stage. The seedlings were then transplanted to the test plots for evaluation of the herbicide for injury against weed species present with the transplanted rice. The herbicides were then applied to the growth medium of the weeds and transplant rice, either preemergent or postemergent with respect to the weeds and postemergent with respect to the transplanted rice. Application times are designated in the tables as "DAT", meaning "days after transplant". Application rates given in the tables refer to the amount of active ingredient used.
(§3) Rice seedlings (ordinary) of Tainan No. 5 variety (japonica) were transplanted at 19 days of growth. Granular formulations of Herbicides A and B were applied at the 1 leaf stage of grass weed (4 DAT) and 2.5 leaf stage of grass weed (10 DAT). Observations were made at 63 DAT and results reported in Table 2 as an average of 3 replications.

[4] = system: Mv (Monochoria vaginalis); assay: Example 5 field test, weed control, JAAPR, Japan; assay type: in vivo
[5] = system: Perennials Ek and Sa (Eleocharis kuroguwai, Sagittaria aginashi); assay: Example 1 field test, perennial weed control, Iri, Korea; assay type: in vivo; conditions: for % Weed Control (Perennials Ek and Sa): weed weight at 63 DAT
Text: In the field test 48 day-old seedlings (Watanabe variety) were transplanted to plots 2.5 × 6 m. seeded with the weed seeds indicated in Table 1. At 5 and 10 DAT periods, the herbicides were applied to the plants (now at the 1.2 and 2.0 leaf stage, respectively, of grass weed) at the indicated rate in kilograms per hectare (kg/ha). The weed control and rice injury results for 3 replications are reported in percentages as of the indicated times of observation. The percentages given in the "Perennials" column are based on the weight of the weeds at 63 DAT, i.e., 42 gms/3.6 m^2 for the weedy check.

Ann. Cyp (Cyperus spp) = assay: Example 5 field test, weed control, JAAPR, Japan
Method: as §1, §2
The rice seedlings were grown to the 1.7 leaf stage for infant seedlings and to the 5.5 leaf stage for ordinary seedlings. Two days after puddling the soil in which the seedlings were to be transplanted, both infant and ordinary seedlings were transplanted into plots 8.5 m^2.
The weed symbol "Obw" represents "other broadleaf weeds" of unspecified identity. Results presented in Table 5 represent the average of 2 replications.

transplanted rice [6] = assay: Example 2 field test, crop injury; conditions: obs. 63 DAT
Method: as §1, §2, §3

[7] = system: Brachiaria platyphylla, Digitaria spp, Echinochloa spp, Eleusine indica, Leptochloa spp and Setaria spp; assay: Weeds effectively treated to date: grasses; assay type: in vivo
[8] = system: Grass: Ec and Ecol (Echinochloa crusgalli, Echinochloa colonum); assay: Example 4 field test on ordinary rice, weed control, Munoz, Philippines; assay type: in vivo; conditions: obs. 36 DAT
Text: (§4) Treatments were replicated four times.

[9] = system: Sedges: Cd, Ci, Fl (Cyperus difformis, Cyperus iria, Fimbristylis littoralis); assay: as above; assay type: in vivo; conditions: obs. 36 DAT
Text: as §4

transplanted rice [10] = assay: Crop safety to transplanted rice, general; assay type: in vivo
[11] = system: Ek (Eleocharis kuroguwai); assay: Other tests, perennial control; assay type: in vivo
[12] = 1.0 kg/ha, 15 DAT, infant seedlings
[13] = 1.0 kg/ha, 15 DAT, ordinary seedlings
[14] = .25 kg/ha, 2 DAT, infant seedlings
[15] = .25 kg/ha, 2 DAT, ordinary seedlings
[16] = .5 kg/ha, 7 DAT, infant seedlings
[17] = .5 kg/ha, 7 DAT, ordinary seedlings

Structure (SMILES): CCCCOCN(C(=O)CCl)c1c(C)cccc1C(C)(C)C [Herbicide A, n-(butoxymethyl)-6'-tert-butyl-2-chloro-o-acetotoluidide]
- weed control in words ([1]; all weeds except Sagittaria (Sp)): very effective
- toxicity to weeds and rice, normal vs early season ([1]; normal season vs early season): slightly more toxic to both weeds and rice
- efficacious application period ([1]; relative to transplanting): from 2 days before transplanting to 12 DAT
- effectively treated monocotyledonous broadleaf weeds [2]: effectively treated
- Yield (% of H.W. Check) (transplanted rice [3]): 97% and 105% and 107% and 81% and 91% and 100% and 73%
- rice yield depression (transplanted rice [3]): rice yield depression
- % Weed Control (Mv) [4, 12]: 67%
- % Weed Control (Mv) [4, 13]: 62%
- % Weed Control (Mv) [4, 14]: 80%
- % Weed Control (Mv) [4, 15]: 80%
- % Weed Control (Mv) [4, 16]: 60%
- % Weed Control (Mv) [4, 17]: 62%
- % Weed Control (Perennials Ek and Sa) ([5]; 5 DAT, 1.0 kg/ha): 68%
- % Weed Control (Perennials Ek and Sa) ([5]; 5 DAT, 2.0 kg/ha): 100%
- % Weed Control (Perennials Ek and Sa) ([5]; 5 DAT, .25 kg/ha): 0%
- % Weed Control (Perennials Ek and Sa) ([5]; 5 DAT, .5 kg/ha): 55%
- % Weed Control (Perennials Ek and Sa) ([5]; 10 DAT, 1.0 kg/ha): 0%
- % Weed Control (Perennials Ek and Sa) ([5]; 10 DAT, 2.0 kg/ha): 0%
- % Weed Control (Perennials Ek and Sa) ([5]; 10 DAT, .25 kg/ha): 0%
- % Weed Control (Perennials Ek and Sa) ([5]; 10 DAT, .5 kg/ha): 2%
- perennial control ([5]; at 14 DAT and at rates less than 2 kgs/ha applied 5 DAT): less than adequate
- control of Ann. Cyp in words (Ann. Cyp (Cyperus spp); 0.25 kg/ha both plots, 1.0 kg/ha ordinary): controlled completely
- % Weed Control (Ann. Cyp) (Ann. Cyp (Cyperus spp); [12]): 100%
- % Weed Control (Ann. Cyp) (Ann. Cyp (Cyperus spp); [13]): 100%
- control of Ann. Cyp in words (Ann. Cyp (Cyperus spp); 1.0 kg/ha, infant seedling plots): controlled
- % Weed Control (Ann. Cyp) (Ann. Cyp (Cyperus spp); [14]): 100%
- % Weed Control (Ann. Cyp) (Ann. Cyp (Cyperus spp); [15]): 100%
- % Weed Control (Ann. Cyp) (Ann. Cyp (Cyperus spp); [16]): 75%
- % Weed Control (Ann. Cyp) (Ann. Cyp (Cyperus spp); [17]): 80%
- % Crop Injury, stand (transplanted rice [6]; 4 DAT, 1.0 kg/ha): 0%
- % Crop Injury, vigor (transplanted rice [6]; 4 DAT, 1.0 kg/ha): 0%
- % Crop Injury, stand (transplanted rice [6]; 4 DAT, 2.0 kg/ha): 5%
- % Crop Injury, vigor (transplanted rice [6]; 4 DAT, 2.0 kg/ha): 27%
- % Crop Injury, stand (transplanted rice [6]; 4 DAT, .25 kg/ha): 0%
- % Crop Injury, vigor (transplanted rice [6]; 4 DAT, .25 kg/ha): 0%
- % Crop Injury, stand (transplanted rice [6]; 4 DAT, .5 kg/ha): 0%
- % Crop Injury, vigor (transplanted rice [6]; 4 DAT, .5 kg/ha): 0%
- % Crop Injury, stand (transplanted rice [6]; 10 DAT, 1.0 kg/ha): 3%
- % Crop Injury, vigor (transplanted rice [6]; 10 DAT, 1.0 kg/ha): 7%
- % Crop Injury, stand (transplanted rice [6]; 10 DAT, 2.0 kg/ha): 15%
- % Crop Injury, vigor (transplanted rice [6]; 10 DAT, 2.0 kg/ha): 25%
- % Crop Injury, stand (transplanted rice [6]; 10 DAT, .25 kg/ha): 0%
- % Crop Injury, vigor (transplanted rice [6]; 10 DAT, .25 kg/ha): 0%
- % Crop Injury, stand (transplanted rice [6]; 10 DAT, .5 kg/ha): 0%
- % Crop Injury, vigor (transplanted rice [6]; 10 DAT, .5 kg/ha): 2%
- effectively treated grasses [7]: effectively treated
- % Weed control, Grass (Ec and Ecol) ([8]; 5 DAT, 1.0 kg/ha): 100%
- % Weed control, Grass (Ec and Ecol) ([8]; 5 DAT, 2.0 kg/ha): 100%
- % Weed control, Grass (Ec and Ecol) ([8]; 5 DAT, .25 kg/ha): 100%
- % Weed control, Grass (Ec and Ecol) ([8]; 5 DAT, .5 kg/ha): 100%
- % Weed control, Grass (Ec and Ecol) ([8]; 14 DAT, 1.0 kg/ha): 80%
- % Weed control, Grass (Ec and Ecol) ([8]; 14 DAT, 2.0 kg/ha): 80%
- % Weed control, Grass (Ec and Ecol) ([8]; 14 DAT, .25 kg/ha): 60%
- % Weed control, Grass (Ec and Ecol) ([8]; 14 DAT, .5 kg/ha): 80%
- % Weed control, Sedges (Cd, Ci, Fl) ([9]; 5 DAT, 1.0 kg/ha): 100%
- % Weed control, Sedges (Cd, Ci, Fl) ([9]; 5 DAT, 2.0 kg/ha): 100%
- % Weed control, Sedges (Cd, Ci, Fl) ([9]; 5 DAT, .25 kg/ha): 100%
- % Weed control, Sedges (Cd, Ci, Fl) ([9]; 5 DAT, .5 kg/ha): 100%
- % Weed control, Sedges (Cd, Ci, Fl) ([9]; 14 DAT, 1.0 kg/ha): 60%
- % Weed control, Sedges (Cd, Ci, Fl) ([9]; 14 DAT, 2.0 kg/ha): 60%
- % Weed control, Sedges (Cd, Ci, Fl) ([9]; 14 DAT, .25 kg/ha): 60%
- % Weed control, Sedges (Cd, Ci, Fl) ([9]; 14 DAT, .5 kg/ha): 50%
- safe application timing (transplanted rice [10]; 2 days before transplant (Table 6) to 14 DAT (Table 4)): can safely be applied preemergence
- crop injury, transplanted rice (transplanted rice [10]; recommended use rates): negligible crop injury
- control of perennial Ek [11]: fair to good
